Converted amounts (≈) assume the structure as drawn.

This assay has as its system P388. Put plainly: Cytotoxicity against mouse P388 cells. It counts as functional. The conditions noted are these: read-out: ED50 (the source's name).
On to `C[C@H]1CC[C@@]2(OC1)O[C@H]1C[C@H]3[C@@H]4CC=C5C[C@@H](O[C@@H]6O[C@H](CO)[C@@H](O[C@@H]7O[C@H](CO)[C@@H](O)[C@H](O[C@@H]8O[C@@H](C)[C@H](O)[C@@H](O)[C@H]8O)[C@H]7O)[C@H](O)[C@H]6O[C@@H]6O[C@@H](C)[C@H](O)[C@@H](O)[C@H]6O)CC[C@]5(C)[C@H]4CC[C@]3(C)[C@H]1[C@@H]2C` [BALANITIN 5], for which the EC50 came out at 2.4 µg/mL (≈ 2.33 µM).

In the case of `C[C@H]1CC[C@@]2(OC1)O[C@H]1C[C@H]3[C@@H]4CC=C5C[C@@H](O[C@@H]6O[C@H](CO)[C@@H](O[C@@H]7O[C@H](CO)[C@@H](O)[C@H](O[C@@H]8OC[C@@H](O)[C@H](O)[C@H]8O)[C@H]7O)[C@H](O)[C@H]6O[C@@H]6O[C@@H](C)[C@H](O)[C@@H](O)[C@H]6O)CC[C@]5(C)[C@H]4CC[C@]3(C)[C@H]1[C@@H]2C` [BALANITIN 7], the EC50 turned out to be 0.22 µg/mL (≈ 0.216 µM).

With `O=c1[nH]cc(F)c(=O)[nH]1` [FLUOROURACIL], the EC50 amounted to 0.08 µg/mL (≈ 0.615 µM).

With `C[C@H]1CC[C@@]2(OC1)O[C@H]1C[C@H]3[C@@H]4CC=C5C[C@@H](O[C@@H]6O[C@H](CO)[C@@H](O[C@@H]7O[C@H](CO)[C@@H](O)[C@H](O)[C@H]7O)[C@H](O)[C@H]6O[C@@H]6O[C@@H](C)[C@H](O)[C@@H](O)[C@H]6O)CC[C@]5(C)[C@H]4CC[C@]3(C)[C@H]1[C@@H]2C` [BALANITIN 6], the EC50 was 0.21 µg/mL (≈ 0.237 µM).

Turning to `C[C@H]1CC[C@@]2(OC1)O[C@H]1C[C@H]3[C@@H]4CC=C5C[C@@H](O[C@@H]6O[C@H](CO)[C@@H](O[C@@H]7O[C@H](CO)[C@@H](O)[C@H](O[C@@H]8O[C@H](CO)[C@@H](O)[C@H](O)[C@H]8O)[C@H]7O)[C@H](O)[C@H]6O[C@@H]6O[C@@H](C)[C@H](O)[C@@H](O)[C@H]6O)CC[C@]5(C)[C@H]4CC[C@]3(C)[C@H]1[C@@H]2C` [BALANITIN 4], the EC50 came to 0.41 µg/mL (≈ 0.392 µM).

(Values after ChEMBL document CHEMBL1150196, “Isolation and structure of cytostatic steroidal saponins from the African medicinal plant Balanites aegyptica” (1991).)
